As usually defined, the IC50 is the concentration at which inhibition is half-maximal. As usually defined, the inhibition is the drop in the measured response relative to a control, in per cent.

Results on 27 compounds are retold here after patent publication EP4678644A1, “SUBSTITUTED DIHYDROTHIENOPYRIMIDINE COMPOUND, PREPARATION METHOD THEREFOR, AND USE THEREOF” (Shanghai Yidi Biotechnology Co., Ltd., priority 2023, dated 2024).

The target of one test is PDE4D2 (Homo sapiens, UniProt Q08499). Briefly: PDE4D2 enzyme experiment (AMP-glo, cAMP substrate). The format is biochemical. Conditions: read-out: PDE4D2 IC50 Binding. An excerpt:
Inhibition rate % ^= (1 - (RLUpositive control - RLUcompound)/(RLUpositive control - RLUnegative control)) * 100.

Test [1] has as its target T1, PDE4B2 (Homo sapiens, UniProt Q07343).
T1 construct: expressed in transfected cells; host or cells: Flp-In-293 (Flpin-293-PDE4B2 [sic])
The test can be described thus: PDE4B2 enzyme experiment (AMP-glo, cAMP substrate). Format: biochemical. Conditions: for inhibition at 0.01 µM: read-out: PDE4B2 Enzyme Inhibition% @10 nM; for inhibition at 0.1 µM: read-out: PDE4B2 Enzyme Inhibition% @100 nM.

The target of test [2] is T1, PDE4B2. The test can be described thus: PDE4B2 cell experiment (cAMP, Eu-cAMP tracer / Ulight-anti-cAMP). Format: cell-based. Conditions: Flpin-293-PDE4B2 cells; for inhibition at 0.01 µM / Cell Inhibition% @10 nM: 10 nM; for inhibition at 0.1 µM / Cell Inhibition% @100 nM: 100 nM; for IC50: Foskolin.

PDE4D2, sequence (Q08499 303-809 limits assumed): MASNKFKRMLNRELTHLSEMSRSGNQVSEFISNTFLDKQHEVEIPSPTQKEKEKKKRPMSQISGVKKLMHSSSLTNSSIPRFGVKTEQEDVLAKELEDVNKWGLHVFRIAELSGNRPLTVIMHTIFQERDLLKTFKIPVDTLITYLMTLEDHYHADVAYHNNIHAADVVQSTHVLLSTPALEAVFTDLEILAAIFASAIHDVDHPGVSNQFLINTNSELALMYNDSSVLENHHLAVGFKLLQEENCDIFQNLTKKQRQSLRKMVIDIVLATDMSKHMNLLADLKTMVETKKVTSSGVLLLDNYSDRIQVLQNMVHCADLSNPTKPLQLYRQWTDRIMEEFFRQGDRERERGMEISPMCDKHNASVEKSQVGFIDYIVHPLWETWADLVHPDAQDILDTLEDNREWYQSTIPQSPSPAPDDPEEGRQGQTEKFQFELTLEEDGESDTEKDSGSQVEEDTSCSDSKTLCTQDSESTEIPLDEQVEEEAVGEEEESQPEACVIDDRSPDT
T1 sequence (Q07343 1-564 isoform Q07343-2): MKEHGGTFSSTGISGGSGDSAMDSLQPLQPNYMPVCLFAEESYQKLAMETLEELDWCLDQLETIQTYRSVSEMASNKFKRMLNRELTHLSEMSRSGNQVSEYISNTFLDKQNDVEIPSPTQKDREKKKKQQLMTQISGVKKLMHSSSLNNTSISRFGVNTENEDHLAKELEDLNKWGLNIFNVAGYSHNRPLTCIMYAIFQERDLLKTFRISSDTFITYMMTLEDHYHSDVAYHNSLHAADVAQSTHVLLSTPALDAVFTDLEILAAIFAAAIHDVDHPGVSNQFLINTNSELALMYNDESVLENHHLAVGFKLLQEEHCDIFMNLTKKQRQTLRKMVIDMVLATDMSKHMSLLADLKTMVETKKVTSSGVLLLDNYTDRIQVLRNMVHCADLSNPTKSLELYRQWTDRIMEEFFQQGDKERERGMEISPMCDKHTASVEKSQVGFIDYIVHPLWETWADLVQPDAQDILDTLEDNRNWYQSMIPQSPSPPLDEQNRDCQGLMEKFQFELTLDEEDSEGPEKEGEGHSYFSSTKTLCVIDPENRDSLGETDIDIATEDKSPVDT

On to `[O-][S@+]1CCc2nc(N3CCc4c(ccc(N5CCCC5)c4F)C3)nc(NC3(CO)CCC3)c21` [Compound 180, (R)-2-(5-fluoro-6-(pyrrolidin-1-yl)-3,4-dihydroisoquinolin-2(1H)-yl)-4-((1-(hydroxymethyl)cyclobutyl)amino)-6,7-dihydrothieno[3,2-d]pyrimidine 5-oxide], for which the IC50 at PDE4D2 was 6.38 nM.
Same read-out and setting: the figure for `[O-][S@+]1CCc2nc(N3CCc4cc(Cl)ccc4C3)nc(NC3(CO)CCC3)c21` [Compound 18, (R)-2-(6-chloro-3,4-dihydroisoquinolin-2(1H)-yl)-4-((1-(hydroxymethyl)cyclobutyl)amino)-6,7-dihydrothieno[3,2-d]pyrimidine 5-oxide] is 3.21 nM; for `COc1cc2c(cc1[N+](=O)[O-])CCN(c1nc3c(c(NC4(CO)CCC4)n1)[S@+]([O-])CC3)C2` [Compound 50, (R)-4-((1-(hydroxymethyl)cyclobutyl)amino)-2-(7-methoxy-6-nitro-3,4-dihydroisoquinolin-2(1H)-yl)-6,7-dihydrothieno[3,2-d]pyrimidine 5-oxide] it is 0.695 nM; for `[O-][S@+]1CCc2nc(N3CCc4cc(-c5nccs5)ccc4C3)nc(NC3(CO)CCC3)c21` [Compound 65, (R)-4-((1-(hydroxymethyl)cyclobutyl)amino)-2-(6-(thiazol-2-yl)-3,4-dihydroisoquinolin-2(1H)-yl)-6,7-dihydrothieno[3,2-d]pyrimidine 5-oxide] it is 0.0931 nM.
Same read-out and setting: under `[O-][S@+]1CCc2nc(N3CCc4c(cnc5cc(Cl)ccc45)C3)nc(NC3(CO)CCC3)c21` [Compound 72, (R)-2-(8-chloro-1,4-dihydrobenzo[c][2,7]naphthyridin-3(2H)-yl)-4-((1-(hydroxymethyl)cyclobutyl)amino)-6,7-dihydrothieno[3,2-d]pyrimidine 5-oxide] stands 0.587 nM.
On to `N#Cc1ccc2c(c1)CN(c1nc3c(c(NC4(CO)CCC4)n1)[S@+]([O-])CC3)C2` [Compound 60, (R)-2-(4-((1-(hydroxymethyl)cyclobutyl)amino)-5-oxido-6,7-dihydrothieno[3,2-d]pyrimidin-2-yl)isoindoline-5-carbonitrile], for which, on PDE4B2 [1], the inhibition at 0.01 µM amounted to 65.8% and the inhibition at 0.1 µM turned out to be 99.3%. Moreover, on PDE4B2 [2], the inhibition at 0.01 µM is 21.2% and the inhibition at 0.1 µM came to 65.9%.
With `Cn1nc2c(c1Cl)CN(c1nc3c(c(NC4(CO)CCC4)n1)[S+]([O-])CC3)CC2` (centres unmarked) [Compound 58], on PDE4B2 [1], the “PDE4B2 Enzyme Inhibition% @10 nM” value is given as 68.74% and the “PDE4B2 Enzyme Inhibition% @100 nM” value was 97.48%. In addition, at PDE4B2 [2], the “Cell Inhibition% @10 nM” value came out at 15.88% and the “Cell Inhibition% @100 nM” value worked out at 57.11%.
For the compound `[O-][S@+]1CCc2nc(N3CCc4nc(N5CCCC5)ccc4C3)nc(NC3(CO)CCC3)c21` [Compound 135, (R)-4-((1-(hydroxymethyl)cyclobutyl)amino)-2-(2-(pyrrolidin-1-yl)-7,8-dihydro-1,6-naphthyridin-6(5H)-yl)-6,7-dihydrothieno[3,2-d]pyrimidine 5-oxide], the IC50 at PDE4D2 is 3.38 nM.
Consider `[O-][S@+]1CCc2nc(N3Cc4nc5cc(Cl)ccn5c4C3)nc(NC3(CO)CCC3)c21` [Compound 8, (R)-2-(6-chloro-1,3-dihydro-2H-pyrrolo[3',4':4,5]imidazo[1,2-a]pyridin-2-yl)-4-((1-(hydroxymethyl)cyclobutyl)amino)-6,7-dihydrothieno[3,2-d]pyrimidine 5-oxide], for which the inhibition at 0.01 µM stood at 45% at PDE4B2 [1] and 3.5% at PDE4B2 [2]. For the same compound, the results for the inhibition at 0.1 µM on PDE4B2 [1] and against PDE4B2 [2] were 94.1% and 15.1%, respectively.
Regarding `[O-][S+]1CCc2nc(N3CCc4sc(Br)cc4C3)nc(NC3(CO)CCC3)c21` (centres unmarked) [Compound 55], on PDE4B2 [1], the “PDE4B2 Enzyme Inhibition% @10 nM” value is reported as 93.26% and the “PDE4B2 Enzyme Inhibition% @100 nM” value turned out to be 99.90%. At PDE4B2 [2], the “Cell Inhibition% @10 nM” value came to 52.78% and the “Cell Inhibition% @100 nM” value is reported as 93.43%.
For the compound `[O-][S@+]1CCc2nc(N3CCc4cc5ncoc5cc4C3)nc(NC3(CO)CCC3)c21` [Compound 49, (R)-2-(7,8-dihydrooxazolo[4,5-g]isoquinolin-6(5H)-yl)-4-((1-(hydroxymethyl)cyclobutyl)amino)-6,7-dihydrothieno[3,2-d]pyrimidine 5-oxide], at PDE4D2, the IC50 was determined as 4.81 nM.
For the compound `[O-][S+]1CCc2nc(N3CCc4cccc(Cl)c4C3)nc(NC3(CO)CCC3)c21` (centres unmarked) [Compound 21], at PDE4B2 [1], 2.11 nM corresponded to half-maximal inhibition (IC50). Besides, on PDE4B2 [2], the “Cell Inhibition% @10 nM” value was 18.76% and the “Cell Inhibition% @100 nM” value was 79.24%.
On to `COc1ccc2c(c1)CCN(c1nc3c(c(NC4(CO)CCC4)n1)[S+]([O-])CC3)CC2` (centres unmarked) [Compound 47], for which, at PDE4B2 [1], the “PDE4B2 Enzyme Inhibition% @10 nM” value was found to be 98.41% and the “PDE4B2 Enzyme Inhibition% @100 nM” value came to 100.06%. This compound showed an IC50 on PDE4B2 [2] of 6.28 nM.
Take `[O-][S+]1CCc2nc(N3CCc4cc(F)ccc4C3)nc(NC3(CO)CCC3)c21` (centres unmarked) [Compound 23]: the IC50 against PDE4B2 [1] turned out to be 2.84 nM; on PDE4B2 [2], 29.1 nM.
As for `[O-][S+]1CCc2nc(N3CCc4c(Cl)cccc4C3)nc(NC3(CO)CCC3)c21` (centres unmarked) [Compound 19], the concentration for half-maximal inhibition (IC50) at PDE4B2 [1] came out at 7.17 nM; on PDE4B2 [2], 205 nM.
Taken in the same sequence, the figures for `[O-][S@+]1CCc2nc(N3CC[C@H]4c5ccc(Cl)cc5OC[C@@H]4C3)nc(NC3(CO)CCC3)c21` [Compound 13, (R)-2-((4aS,10bR)-8-chloro-1,4a,5,10b-tetrahydro-2H-chromeno[3,4-c]pyridin-3(4H)-yl)-4-((1-(hydroxymethyl)cyclobutyl)amino)-6,7-dihydrothieno[3,2-d]pyrimidine 5-oxide] were 6.39 nM and 562 nM.
In the case of `[O-][S+]1CCc2nc(N3CCc4cnc(Cl)cc4C3)nc(NC3(CO)CCC3)c21` (centres unmarked) [Compound 79], on PDE4B2 [1], the IC50 worked out at 9.19 nM. Besides, on PDE4B2 [2] (1 nM), the “Cell Inhibition% @1 nM” value turned out to be 1.99%. Further, on PDE4B2 [2], the “Cell Inhibition% @10 nM” value stood at 11.19% and the “Cell Inhibition% @100 nM” value was found to be 59.37%.
With `CN1CC=C(c2ccc3c(c2)CCN(c2nc4c(c(NC5(CO)CCC5)n2)[S@+]([O-])CC4)C3)C1` [Compound 169, (R)-4-((1-(hydroxymethyl)cyclobutyl)amino)-2-(6-(1-methyl-2,5-dihydro-1H-pyrrol-3-yl)-3,4-dihydroisoquinolin-2(1H)-yl)-6,7-dihydrothieno[3,2-d]pyrimidine 5-oxide], on PDE4B2 [1], the inhibition at 0.01 µM was 20.4% and the inhibition at 0.1 µM amounted to 78.8%. Moreover, the inhibition at 0.001 µM against PDE4B2 [2] (1 nM) was 4.67%. Besides, on PDE4B2 [2], the inhibition at 0.01 µM was determined as 48.6% and the inhibition at 0.1 µM worked out at 96.7%.
In the case of `[O-][S+]1CCc2nc(N3Cc4ccc(C(F)(F)F)cc4C3)nc(NC3(CO)CCC3)c21` (centres unmarked) [Compound 62], on PDE4B2 [1], the “PDE4B2 Enzyme Inhibition% @10 nM” value stood at 83.85% and the “PDE4B2 Enzyme Inhibition% @100 nM” value came to 100.57%. Further, at PDE4B2 [2], the “Cell Inhibition% @10 nM” value came to 29.5% and the “Cell Inhibition% @100 nM” value was determined as 69.1%.
With `[O-][S+]1CCc2nc(N3Cc4ccc(Cl)cc4C3)nc(NC3(CO)CCC3)c21` (centres unmarked) [Compound 33], at PDE4B2 [1], the “PDE4B2 Enzyme Inhibition% @10 nM” value came to 72.33% and the “PDE4B2 Enzyme Inhibition% @100 nM” value amounted to 98.64%. Also, at PDE4B2 [2], the “Cell Inhibition% @10 nM” value was determined as 9% and the “Cell Inhibition% @100 nM” value is listed as 33.2%.
As to `Cn1cnc2c1CN(c1nc3c(c(NC4(CO)CCC4)n1)[S@+]([O-])CC3)CC2` [Compound 38, (R)-4-((1-(hydroxymethyl)cyclobutyl)amino)-2-(3-methyl-3,4,6,7-tetrahydro-5H-imidazo[4,5-c]pyridin-5-yl)-6,7-dihydrothieno[3,2-d]pyrimidine-5-oxide], at PDE4B2 [1], the inhibition at 0.01 µM turned out to be 35.4% and the inhibition at 0.1 µM was 84.7%. In addition, on PDE4B2 [2], the inhibition at 0.01 µM is 20.3% and the inhibition at 0.1 µM amounted to 38.2%.
Taken in the same sequence, the figures for `[O-][S@+]1CCc2nc(N3CCc4cc5c(cc4C3)OC(F)(F)O5)nc(NC3(CO)CCC3)c21` [Compound 48, (R)-2-(2,2-difluoro-7,8-dihydro-[1,3]dioxolo[4,5-g]isoquinolin-6(5H)-yl)-4-((1-(hydroxymethyl)cyclobutyl)amino)-6,7-dihydrothieno[3,2-d]pyrimidine 5-oxide] were 87%, 101%, 25.7% and 76.2%.
Take `Cn1c(=O)c2c(c3ccc(Cl)cc31)CCN(c1nc3c(c(NC4(CO)CCC4)n1)[S@+]([O-])CC3)C2` [Compound 45, (R)-8-chloro-3-(4-((1-(hydroxymethyl)cyclobutyl)amino)-5-oxido-6,7-dihydrothieno[3,2-d]pyrimidin-2-yl)-6-methyl-2,3,4,6-tetrahydrobenzo[c][2,7]naphthyridin-5(1H)-one]: at PDE4B2 [1], the inhibition at 0.01 µM was 99.8% and the inhibition at 0.1 µM came out at 100%. The compound also displayed an IC50 against PDE4B2 [2] of 3.99 nM.
Consider `[O-][S+]1CCc2nc(N3CCc4sccc4C3)nc(NC3(CO)CCC3)c21` (centres unmarked) [Compound 37], for which the IC50 against PDE4B2 [1] turned out to be 2.99 nM; against PDE4B2 [2], 89.5 nM.
`[O-][S+]1CCc2nc(N3CCc4ccsc4C3)nc(NC3(CO)CCC3)c21` (centres unmarked) [Compound 36]: at PDE4B2 [1], the “PDE4B2 Enzyme Inhibition% @10 nM” value was determined as 74.54% and the “PDE4B2 Enzyme Inhibition% @100 nM” value amounted to 99.04%. Moreover, at PDE4B2 [2], the “Cell Inhibition% @10 nM” value is listed as 18.10% and the “Cell Inhibition% @100 nM” value was 66.60%.
Taken in the same sequence, the figures for `O=[N+]([O-])c1ccc2c(c1)CN(c1nc3c(c(NC4(CO)CCC4)n1)[S+]([O-])CC3)C2` (centres unmarked) [Compound 61] were 70.90%, 98.20%, 17.7% and 55.2%.
Taken in the same sequence, the figures for `[O-][S+]1CCc2nc(N3CCc4ccc(Br)cc4CC3)nc(NC3(CO)CCC3)c21` (centres unmarked) [Compound 46] were 98.91%, 100.22%, 69.61% and 99.05%.
